Test results: patent publication US20260345649A1, “PHARMACEUTICAL COMPOSITION FOR DESTRUCTION OF TUMOR BLOOD VESSELS” (SAMSUNG MEDICAL FOUNDATION, priority 2022, published 2026)

What was measured:
[1] = test system: subcutaneous muscle layer; experiment: Pathological changes in the subcutaneous muscle layer after subcutaneous injection of 5-FU (H&E staining); type: in vivo, nude mice; parameters: key to pathological change score (degeneration, necrosis, inflammation, fibrosis): 0: absent; 1: mild; 2: moderate; 3: severe; details: 5 mg pH 8.4 5-FU, after 24 hours
Experimental: To observe pathological changes in the surrounding tissue after injecting 5 mg of pH 8.4 5-FU near the tumor, the drug was locally administered to nude mice. After 24 hours, tissues, including muscle layers, were collected and subjected to H&E staining to examine degeneration, necrosis, inflammation, and fibrosis in the muscle layer. The extent of each pathological change was scored as follows: 0=absent, 1=mild, 2=moderate, 3=severe, and the results are shown in FIG. 10A and FIG. 10b. FIG. 10A presents observations at 40× magnification, while FIG. 10b presents observations at 100× magnification.

CD31 = CD31 immunohistochemical staining of gastric tumor tissue after local injection of 5-FU in nude mice; type: in vivo
Experimental: To observe changes in vascular tissue within gastric tumor masses after local injection of 5-FU, immunohistochemical staining for CD31 and VEGF was performed.
For the control group, gastric tumor tissue was implanted in the dorsal region of nude mice, and when the tumor reached a size of 1 cm×1 cm, it was excised and used. For the 5-FU injection group, 5 mg of 5-FU was injected at the base of the tumor when the implanted tumor reached a size of 1 cm×1 cm. […] The immunohistochemical staining method was as follows.
To reduce endogenous peroxidase activity present in blood cells within the tissue, the slides were treated at room temperature with 3% H2O2 in methanol for 15 minutes. […] The slides were washed twice with TBST (Tris-buffered saline with 0.1% Tween® 20 Detergent) for 3 minutes each, followed by incubation at room temperature for 15 minutes with Detection Kit Reagent 1 (HRP Polymer-anti-mouse/rabbit IgG). […] For counterstaining, Harris hematoxylin was applied.
For result analysis, the proportion of the area stained for CD31-positive blood vessels and VEGF-positive cancer cells relative to the total tissue area was calculated, and a comparison was made between the control group and the 5-FU locally injected group.

HUVECs = experiment: LDH release assay in HUVECs; type: cell-based, human; details: 1 mM, 5 mM, and 10 mM 5-FU, time-dependent, P<0.05, FIG. 4
Experimental: It has been generally reported that an increase in the expression of thrombospondin-1 (TSP-1) and thrombospondin-2 (TSP-2) induces apoptosis in endothelial cells. To investigate whether the administration of 5-fluorouracil (5-FU) enhances apoptosis in endothelial cells, an LDH release assay was conducted in human umbilical vein endothelial cells (HUVECs). Cytotoxicity was assessed based on the amount of lactate dehydrogenase (LDH) released due to cell membrane damage. The released LDH was quantified using an LDH assay kit (EZ-LDH1000; DoGenBio, Seoul, Korea) according to the manufacturer's protocol.
HUVECs (5×10^4 cells/well) were seeded in a 96-well polystyrene plate and incubated at 37 °C for 24 hours. LDH substrate was added to each well, followed by an additional incubation at 37 °C for 10 minutes. The plate was centrifuged at 600 g for 5 minutes. A 10-μL aliquot of the supernatant was transferred from the culture plate wells to an analysis plate. Subsequently, 100 μL of LDH reaction mixture reagent was added to the supernatant in each well of the analysis plate. After a 30-minute reaction, absorbance was measured at 450 nm using a microplate reader (Model 680; Bio-Rad). The cytotoxicity of 5-FU on HUVECs was determined based on the amount of LDH released.

patients = details: cited from earlier work
[2] = test system: thrombospondin-1 (TSP-1) in HUVEC; experiment: TSP-1 protein expression in HUVEC by Western blot; type: cell-based, human; details: prolonged exposure and higher drug concentrations of 5-FU, FIG. 3
Experimental: Thrombospondin (TSP) is a macromolecule with various functions, and among its isoforms, TSP-1 acts as an angiogenesis inhibitor. The following experiment was conducted to examine changes in TSP-1 expression in response to different concentrations of 5-FU.
Western blot analysis was conducted to confirm the expression of TSP-1 protein in the HUVEC (human umbilical vein endothelial cell) cell line.
HUVECs cultured in petri dishes were lysed using a buffer containing 50 mM Tris (pH 8.0), 150 mM NaCl, 1% Nonidet P-40, 0.5% sodium deoxycholate (SDC), 0.1% sodium dodecyl sulfate (SDS), and 1× protease inhibitor cocktail. The lysates were incubated on ice for 30 minutes, followed by centrifugation at 14,000 g for 10 minutes to collect the supernatant.
Protein quantification was performed using a bicinchoninic acid (BCA) protein assay kit (Pierce Chemical, Rockford, IL, USA). A total of 30 μg of protein was subjected to electrophoresis on a 10% SDS-polyacrylamide gel and subsequently transferred onto a nitrocellulose membrane. The membrane was blocked with blocking milk for 1 hour, then incubated with the same TSP-1 antibody used for immunostaining at room temperature for 1 hour. After three washes with Tris buffer containing 0.1% Tween 20 at 15-minute intervals, the membrane was incubated with a secondary antibody specific to the primary antibody at room temperature for 1 hour. […]

HUVEC = experiment: 5-FU cytotoxicity on HUVEC according to D-glucose or L-glucose concentration (MTS); type: cell-based, human
Experimental: An MTS cell proliferation assay was conducted to evaluate the cytotoxic effect of 5-FU on HUVEC according to D-glucose concentration under different pH conditions.
The cells were then incubated for an additional 24 hours in DMEM medium containing various concentrations of glucose.
To assess the cytotoxic effect of L-glucose on HUVEC, the experiment was conducted in the same manner as described in Example 2, Section 3.
To assess the cytotoxic effect of D-glucose or L-glucose on HUVEC, the experiment was conducted in the same manner as described in Example 2, Section 3.

O=c1[nH]cc(F)c(=O)[nH]1 [5-FU, 5-fluorouracil]
pathological change score (degeneration, necrosis, inflammation, fibrosis) [1]: 0
pathological changes in the subcutaneous muscle layer at the injection site [1]: no pathological changes were observed
distribution of necrotic tissue in tumor mass (CD31; 5 mg 5-FU, one week, compared to control group, FIG. 6): the distribution of necrotic tissue increased
Immuno-positive area (%) (CD31; CD31, proportion of total tissue area, 5 mg 5-FU, one week after injection, control group 0.87): 0.54%
stained area of CD31 and VEGF (CD31; CD31 and VEGF, compared to control group, Table 1): appeared smaller
vascular distribution within the tumor mass (CD31; compared to control group): reduced
stained area ratio of CD31 (CD31; compared to control group, FIG. 6): lower
amount of released LDH (HUVECs): significantly increased
myelosuppression and gastrointestinal toxicity (patients; due to phosphorylation in the gastrointestinal tract, damage to normal cells): frequent myelosuppression and gastrointestinal toxicity
adverse effects on intravenous administration (patients; intravenous): associated with adverse effects such as thrombosis
incidence of severe and potentially life-threatening cardiotoxicity (patients; reported cases): 1.5% to 18
TSP-1 expression levels [2]: increased expression levels
cell viability upon addition of 5-FU (HUVEC; 5-FU added to L-glucose 5 mM and 25 mM, FIG. 14): further decreased cell viability
cell viability upon addition of 5-FU (HUVEC; 5-FU under different pH conditions added to D-glucose 5 mM and 25 mM, FIG. 13): further decrease in cell viability
